≈ marks a conversion by molar mass, not a printed value. Non-standard residues stand in square brackets, D forms with d. Residues, ends and D or L forms follow the SMILES beside them. Dip = N[C@H](C(=O)O)C(c1ccccc1)c1ccccc1; 2Nal = N[C@@H](Cc1ccc2ccccc2c1)C(=O)O
Assays:
B. subtilis (ATCC-6633) = experiment: Broad-spectrum activity against Gram-Positive bacteria (MIC); type: cell-based; set-up: unit not given here
[1] = system: Streptococcus pneumoniae ATCC 49619; conditions: S. pneumoniae ATCC 49619
human red blood cells = system: human red blood cells; set-up: unit not given beside the values
[2] = system: A. baumannii (ATCC BAA-1605); experiment: Broad-spectrum activity against Gram-Negative bacteria (MIC); type: cell-based; conditions: Table 16, Gram-negative panel
[3] = system: Klebsiella pneumoniae ATCC 13883; conditions: Table 16, Gram-negative panel
[4] = system: Enterococcus faecium ATCC 27270; conditions: E. faecium ATCC 27270
[5] = system: Escherichia coli (ATCC 25922); conditions: ATCC 25922
B. cereus (ATCC-13061) = experiment: Broad-spectrum activity against Gram-Positive bacteria (MIC); type: cell-based; set-up: unit not given here
E. coli (ATCC BAA-2452) = experiment: Broad-spectrum activity against Gram-Negative bacteria (MIC); type: cell-based; conditions: Table 16, Gram-negative panel
S. aureus ATCC 29213 = conditions: ATCC 29213
[6] = system: Klebsiella pneumoniae (ATCC BAA-1705); conditions: Table 16, Gram-negative panel
[7] = system: Methicillin-resistant Staphylococcus aureus MRSA (ATCC BAA-1556); conditions: ATCC BAA-1556
[8] = system: P. aeruginosa (ATCC BAA-1744); experiment: Broad-spectrum activity against Gram-Negative bacteria (MIC); type: cell-based; conditions: Table 16, Gram-negative panel
[9] = system: Pseudomonas aeruginosa (ATCC 27883); conditions: ATCC 27883
[10] = system: Enterococcus faecium ATCC 700221; conditions: E. faecium ATCC 700221
[11] = system: Streptococcus pneumoniae ATCC 51938; conditions: S. pneumoniae ATCC 51938
[12] = system: Enterococcus faecalis ATCC 51575; conditions: E. faecalis ATCC 51575
[13] = system: Enterococcus faecalis ATCC 29212; conditions: E. faecalis ATCC 29212
[14] = system: P. aeruginosa (ATCC 10145); experiment: Broad-spectrum activity against Gram-Negative bacteria (MIC); type: cell-based; conditions: Table 16, Gram-negative panel
[15] = system: Escherichia coli (E. Coli, ATCC 25922); conditions: Escherichia coli (ATCC 25922); antibiotic alone

| Compound | HC50 (human red blood cells) | MIC A. baumannii (ATCC BAA-1605) [2] [µg/mL] | MIC K. pneumonia (ATCC 13883) [3] [µg/mL] | MIC E. coli ATCC 25922 [5] [µg/mL] | MIC E. coli (ATCC BAA-2452) (E. coli (ATCC BAA-2452)) [µg/mL] | MIC S. aureus ATCC 29213 (S. aureus ATCC 29213) [µg/mL] | MIC K. pneumonia (ATCC BAA-1705) [6] [µg/mL] | MIC MRSA ATCC BAA-1556 [7] [µg/mL] | MIC P. aeruginosa (ATCC BAA-1744) [8] [µg/mL] | MIC P. aeruginosa ATCC 27883 [9] [µg/mL] | MIC P. aeruginosa (ATCC 10145) [14] [µg/mL] | Broad-spectrum activity B. subtilis (ATCC-6633) (B. subtilis (ATCC-6633)) | Broad-spectrum activity S. pneumoniae (ATCC 49619) [1] | Broad-spectrum activity E. faecium (ATCC 27270) [4] | Broad-spectrum activity B. cereus (ATCC-13061) (B. cereus (ATCC-13061)) | Broad-spectrum activity E. faecium (ATCC 700221) [10] | Broad-spectrum activity S. pneumoniae (ATCC 51938) [11] | Broad-spectrum activity E. faecalis (ATCC 51575) [12] | Broad-spectrum activity E. faecalis (ATCC 29212) [13] | also measured |
| --- | --- | --- | --- | --- | --- | --- | --- | --- | --- | --- | --- | --- | --- | --- | --- | --- | --- | --- | --- | --- |
| N=C(N)NCCC[C@@H]1NC(=O)[C@H](CCCNC(=N)N)NC(=O)[C@H](Cc2ccc3ccccc3c2)NC(=O)[C@H](Cc2ccc3ccccc3c2)NC(=O)[C@H](CCCNC(=N)N)NC(=O)[C@H](CCCNC(=N)N)NC(=O)[C@H](Cc2ccc3ccccc3c2)NC1=O [IFX-018, c[Arg-NaI-Arg-Arg-NaI-NaI-Arg]] (cyclo(R[2Nal]RR[2Nal][2Nal]R)) | 300 | 6.2 (≈ 5.1 µM) | 50 (≈ 41.1 µM) | 25 (≈ 20.6 µM) | 12.5 (≈ 10.3 µM) | 6.2 (≈ 5.1 µM) | 25 (≈ 20.6 µM) | 6.2 (≈ 5.1 µM) | 25 (≈ 20.6 µM) | >100 | 50 (≈ 41.1 µM) | 1.5 | 25 | 1.5 | 3.1 | 1.5 | 12.5 | 12.5 | 6.2 | – |
| O=C(O)c1cn(C2CC2)c2cc(N3CCNCC3)c(F)cc2c1=O [Ciprofloxacin, reference compound] | – | – | – | – | – | – | – | – | – | – | – | – | – | – | – | – | – | – | – | MIC of antibiotic [15]: 64 µg/mL |
| N=C(N)NCCC[C@@H]1NC(=O)[C@H](CCCNC(=N)N)NC(=O)[C@H](Cc2ccc3ccccc3c2)NC(=O)[C@H](Cc2ccc3ccccc3c2)NC(=O)[C@H](CCCNC(=N)N)NC(=O)[C@H](CCCNC(=N)N)NC(=O)[C@H](Cc2ccc3ccccc3c2)NC1=O [IFX-019, c[Arg-Arg-NaI-NaI-Arg-Arg-NaI]] (cyclo(R[2Nal]RR[2Nal][2Nal]R)) | 325 | 12.5 (≈ 10.3 µM) | 50 (≈ 41.1 µM) | 50 (≈ 41.1 µM) | 6.2 (≈ 5.1 µM) | 6.2 (≈ 5.1 µM) | 25 (≈ 20.6 µM) | 6.2 (≈ 5.1 µM) | 12.5 (≈ 10.3 µM) | 50 (≈ 41.1 µM) | 25 (≈ 20.6 µM) | 1.5 | 25 | 1.5 | 1.5 | 1.5 | 12.5 | 6.2 | 3.1 | – |
| N=C(N)NCCC[C@@H]1NC(=O)[C@H](CCCNC(=N)N)NC(=O)[C@H](CCCNC(=N)N)NC(=O)[C@H](Cc2c[nH]c3ccccc23)NC(=O)[C@H](Cc2c[nH]c3ccccc23)NC(=O)[C@H](Cc2c[nH]c3ccccc23)NC(=O)[C@H](Cc2c[nH]c3ccccc23)NC(=O)[C@H](CCCNC(=N)N)NC(=O)[C@H](CCCNC(=N)N)NC1=O [[R5W4] IFX-301] | – | – | – | – | – | – | – | – | – | – | – | – | – | – | – | – | – | – | – | MIC (PSA): 32 µg/mL (≈ 21 µM); MIC (E. coli): 16 µg/mL (≈ 10.5 µM); MIC (KPC): 32 µg/mL (≈ 21 µM) |

More lines, main results first:

| HC50 (human red blood cells) | MIC A. baumannii (ATCC BAA-1605) [2] [µg/mL] | MIC K. pneumonia (ATCC 13883) [3] [µg/mL] | MIC E. coli ATCC 25922 [5] [µg/mL] | MIC E. coli (ATCC BAA-2452) (E. coli (ATCC BAA-2452)) [µg/mL] | MIC S. aureus ATCC 29213 (S. aureus ATCC 29213) [µg/mL] | MIC K. pneumonia (ATCC BAA-1705) [6] [µg/mL] | MIC MRSA ATCC BAA-1556 [7] [µg/mL] | MIC P. aeruginosa (ATCC BAA-1744) [8] [µg/mL] | MIC P. aeruginosa ATCC 27883 [9] [µg/mL] | MIC P. aeruginosa (ATCC 10145) [14] [µg/mL] | Compound | Broad-spectrum activity B. subtilis (ATCC-6633) (B. subtilis (ATCC-6633)) | Broad-spectrum activity S. pneumoniae (ATCC 49619) [1] | Broad-spectrum activity E. faecium (ATCC 27270) [4] | Broad-spectrum activity B. cereus (ATCC-13061) (B. cereus (ATCC-13061)) | Broad-spectrum activity E. faecium (ATCC 700221) [10] | Broad-spectrum activity S. pneumoniae (ATCC 51938) [11] | Broad-spectrum activity E. faecalis (ATCC 51575) [12] | Broad-spectrum activity E. faecalis (ATCC 29212) [13] | also measured |
| --- | --- | --- | --- | --- | --- | --- | --- | --- | --- | --- | --- | --- | --- | --- | --- | --- | --- | --- | --- | --- |
| 190 | 12.5 (≈ 9.66 µM) | 50 (≈ 38.6 µM) | 12.5 (≈ 9.66 µM) | 6.2 (≈ 4.79 µM) | 1.5 (≈ 1.16 µM) | 12.5 (≈ 9.66 µM) | 1.5 (≈ 1.16 µM) | 12.5 (≈ 9.66 µM) | 12.5 (≈ 9.66 µM) | 25 (≈ 19.3 µM) | N=C(N)NCCC[C@@H]1NC(=O)[C@H](CCCNC(=N)N)NC(=O)[C@H](CCCNC(=N)N)NC(=O)[C@H](C(c2ccccc2)c2ccccc2)NC(=O)[C@H](C(c2ccccc2)c2ccccc2)NC(=O)[C@H](C(c2ccccc2)c2ccccc2)NC(=O)[C@H](CCCNC(=N)N)NC1=O [IFX-008, c[Arg-Arg-Arg-Arg-Dip-Dip-Dip]] (cyclo(RRRR[Dip][Dip][Dip])) | 1.5 | 25 | 3.1 | 6.2 | 1.5 | 12.5 | 12.5 | 6.2 | – |
| 310 | 12.5 (≈ 9.66 µM) | 50 (≈ 38.6 µM) | >100 | 12.5 (≈ 9.66 µM) | 6.2 (≈ 4.79 µM) | 25 (≈ 19.3 µM) | 6.2 (≈ 4.79 µM) | 12.5 (≈ 9.66 µM) | 50 (≈ 38.6 µM) | 25 (≈ 19.3 µM) | N=C(N)NCCC[C@@H]1NC(=O)[C@H](CCCNC(=N)N)NC(=O)[C@H](C(c2ccccc2)c2ccccc2)NC(=O)[C@H](C(c2ccccc2)c2ccccc2)NC(=O)[C@H](CCCNC(=N)N)NC(=O)[C@H](CCCNC(=N)N)NC(=O)[C@H](C(c2ccccc2)c2ccccc2)NC1=O [IFX-016, c[Arg-Dip-Arg-Arg-Dip-Dip-Arg]] (cyclo(R[Dip]RR[Dip][Dip]R)) | 1.5 | 25 | 3.1 | 6.2 | 1.5 | 12.5 | 12.5 | 6.2 | – |
| 205 | 25 (≈ 22 µM) | 50 (≈ 43.9 µM) | 12.5 (≈ 11 µM) | 25 (≈ 22 µM) | 3.1 (≈ 2.72 µM) | 12.5 (≈ 11 µM) | 3.1 (≈ 2.72 µM) | 25 (≈ 22 µM) | 12.5 (≈ 11 µM) | 50 (≈ 43.9 µM) | N=C(N)NCCC[C@@H]1NC(=O)[C@H](CCCNC(=N)N)NC(=O)[C@H](C(c2ccccc2)c2ccccc2)NC(=O)[C@H](C(c2ccccc2)c2ccccc2)NC(=O)[C@H](C(c2ccccc2)c2ccccc2)NC(=O)[C@H](CCCNC(=N)N)NC1=O [IFX-002, c[Arg-Arg-Arg-Dip-Dip-Dip]] (cyclo([Dip][Dip][Dip]RRR)) | 6.2 | 50 | 6.2 | 12.5 | 6.2 | 25 | 12.5 | 12.5 | – |

— US20220289794A1, “SYNTHETIC ANTIMICROBIAL PEPTIDES” (priority 2019, published 2022)
